Key:
barnyardgrass [1] = experiment: Test A preemergence; format: in vivo, Echinochloa crus-galli; details: preemergence; for Barnyardgrass plant response rating (0 to 100 scale, 0 is no effect, 100 is complete control): 125 g ai/ha, visual injury approx. 10 days after treatment; for Barnyardgrass plant response rating: 500 g ai/ha, visual injury after approx. 10 days, 0 to 100 scale (0 no effect, 100 complete control)
How it was run: (§1)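 Both timings tested concurrently in loam/sand soil: preemergence by directed soil spray, postemergence on plants of 2–10 cm at the one- to two-leaf stage. Greenhouse holding period was approximately 10 days before visual injury assessment (0–100, 0 = no effect).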

kochia [2] = experiment: Test A preemergence; format: in vivo, Kochia scoparia; details: 125 g ai/ha, visual injury approx. 10 days after treatment
Source text: (§2) Seeds of plant species selected from barnyardgrass (Echinochloa crus-galli), kochia (Kochia scoparia), common ragweed (Ambrosia elation), Italian ryegrass (Lolium multiflorum), crabgrass, large (large crabgrass, Digitaria sanguinalis), foxtail, giant (giant foxtail, Setaria faberii), morningglory (Ipomoea spp.), pigweed (redroot pigweed, Amaranthus retroflexus), velvetleaf (Abutilon theophrasti), wheat (Triticum aestivum), and corn (Zea mays) were planted into a blend of loam soil and sand and treated preemergence with a directed soil spray using test chemicals formulated in a non-phytotoxic solvent mixture which included a surfactant.
(§3) At the same time, plants selected from these crop and weed species and also blackgrass (Alopecurus myosuroides), and galium (catchweed bedstraw, Galium aparine) were planted in pots containing the same blend of loam soil and sand and treated with postemergence applications of test chemicals formulated in the same manner. Plants ranged in height from 2 to 10 cm and were in the one- to two-leaf stage for the postemergence treatment. Treated plants and untreated controls were maintained in a greenhouse for approximately 10 days, after which time all treated plants were compared to untreated controls and visually evaluated for injury. Plant response ratings, summarized in Table A, are based on a 0 to 100 scale where 0 is no effect and 100 is complete control. A dash (-) response means no test result.

common ragweed [3] = experiment: Test A preemergence; format: in vivo, Ambrosia elation; details: for Common Ragweed plant response rating (0 to 100 scale): 125 g ai/ha, visual injury approx. 10 days after treatment; for Common Ragweed plant response rating: 500 g ai/ha, visual injury after approx. 10 days, 0 to 100 scale (0 no effect, 100 complete control)
Source text: as §2, §3

Italian ryegrass [4] = experiment: Test A preemergence; format: in vivo, Lolium multiflorum; details: for Italian Ryegrass plant response rating (0 to 100 scale): 125 g ai/ha, visual injury approx. 10 days after treatment; for Italian Ryegrass plant response rating: 500 g ai/ha, visual injury after approx. 10 days, 0 to 100 scale (0 no effect, 100 complete control)
How it was run: as §1

foxtail, giant [5] = experiment: Test A preemergence; format: in vivo, Setaria faberii; details: preemergence; for Foxtail, Giant plant response rating (0 to 100 scale): 125 g ai/ha, visual injury approx. 10 days after treatment; for Foxtail, Giant plant response rating: 500 g ai/ha, visual injury after approx. 10 days, 0 to 100 scale (0 no effect, 100 complete control)
How it was run: as §1

pigweed [6] = experiment: Test A preemergence; format: in vivo, Amaranthus retroflexus; details: preemergence, 125 g ai/ha, visual injury approx. 10 days after treatment
How it was run: as §1

barnyardgrass [7] = experiment: Test A postemergence; format: in vivo, Echinochloa crus-galli
How it was run: as §1

kochia [8] = experiment: Test A postemergence; format: in vivo, Kochia scoparia; details: Postemergence
Source text: as §2, §3

common ragweed [9] = experiment: Test A postemergence; format: in vivo, Ambrosia elation
Source text: as §2, §3

Italian ryegrass [10] = experiment: Test A postemergence; format: in vivo, Lolium multiflorum; details: Postemergence
Source text: as §2, §3

foxtail, giant [11] = experiment: Test A postemergence; format: in vivo, Setaria faberii
How it was run: as §1

pigweed [12] = experiment: Test A postemergence; format: in vivo, Amaranthus retroflexus; details: Postemergence
How it was run: as §1

wheat = experiment: Test A postemergence; format: in vivo, Triticum aestivum; details: Postemergence
How it was run: as §1

corn = experiment: Test A postemergence; format: in vivo, Zea mays
How it was run: as §1

blackgrass = experiment: Test A postemergence; format: in vivo, Alopecurus myosuroides
How it was run: as §1

galium = experiment: Test A postemergence; format: in vivo, Galium aparine; details: Postemergence
Source text: as §2, §3

rice = experiment: Test B flood; format: in vivo, Oryza sativa; details: 250 g ai/ha, visual rating on 0 to 100 scale (0 no effect, 100 complete control), 13 to 15 days
How it was run: (§4)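 Flooded-pot test: compound dosed into 3 cm of standing water above soil when plants had two leaves. Visual control ratings (0–100) versus untreated plants after 13–15 d.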

sedge, umbrella = experiment: Test B flood; format: in vivo, Cyperus difformis; details: 250 g ai/ha, visual rating on 0 to 100 scale (0 no effect, 100 complete control), 13 to 15 days
How it was run: as §4

ducksalad = experiment: Test B flood; format: in vivo, Heteranthera limosa; details: 250 g ai/ha, visual rating on 0 to 100 scale (0 no effect, 100 complete control), 13 to 15 days
How it was run: as §4

barnyardgrass [13] = experiment: Test B flood; format: in vivo, Echinochloa crus-galli; details: 250 g ai/ha, visual rating on 0 to 100 scale (0 no effect, 100 complete control), 13 to 15 days
How it was run: as §4

[14] = Postemergence, 500 g ai/ha, 0 to 100 scale (0 no effect, 100 complete control)
[15] = postemergence, 125 g ai/ha, about 10 days, visual rating on 0 to 100 scale (0 no effect, 100 complete control)
[16] = 125 g ai/ha, 0 to 100 scale, 0 no effect, 100 complete control
[17] = 500 g ai/ha, 0 to 100 scale (0 no effect, 100 complete control)
[18] = Postemergence, 125 g ai/ha, 0 to 100 scale, 0 no effect, 100 complete control

SMILES | Barnyardgrass plant response rating (0 to 100 scale, 0 is no effect, 100 is complete control) (barnyardgrass [1]) | Barnyardgrass plant response rating (barnyardgrass [1]) | Kochia plant response rating (0 to 100 scale) (kochia [2]) | Common Ragweed plant response rating (0 to 100 scale) (common ragweed [3]) | Common Ragweed plant response rating (common ragweed [3]) | Italian Ryegrass plant response rating (0 to 100 scale) (Italian ryegrass [4]) | Italian Ryegrass plant response rating (Italian ryegrass [4]) | Foxtail, Giant plant response rating (0 to 100 scale) (foxtail, giant [5]) | Foxtail, Giant plant response rating (foxtail, giant [5]) | Pigweed plant response rating (0 to 100 scale) (pigweed [6]) | Barnyardgrass plant response rating (barnyardgrass [7]; [14]) | Kochia plant response rating (kochia [8]; [16]) | Kochia plant response rating (kochia [8]; [17]) | Common Ragweed plant response rating (common ragweed [9]; [14]) | Italian Ryegrass plant response rating (Italian ryegrass [10]; [16]) | Italian Ryegrass plant response rating (Italian ryegrass [10]; [17]) | Foxtail, Giant plant response rating (foxtail, giant [11]; [14]) | Pigweed plant response rating (pigweed [12]; [16]) | Pigweed plant response rating (pigweed [12]; [17]) | Wheat plant response rating (wheat; [16]) | other results
CCCNC(=O)c1cc(CC)n(Cc2cc(C(F)(F)F)nn2C(C)C)n1 [Compound 209] | 0 | 0 | 0 | 0 | 0 | 0 | 0 | 0 | 0 | 0 | 0 | 0 | 0 | 0 | 0 | 0 | 0 | 0 | 0 | 0 | Barnyardgrass plant response rating (barnyardgrass [7]; [15]): 0; Common Ragweed plant response rating (common ragweed [9]; [15]): 0; Foxtail, Giant plant response rating (foxtail, giant [11]; [15]): 0; Wheat plant response rating (wheat; [17]): 0; Corn plant response rating (corn; [14]): 0; Corn plant response rating (corn; [15]): 0; Blackgrass plant response rating (blackgrass; [14]): 0; Blackgrass plant response rating (blackgrass; [15]): 0; Galium plant response rating (galium; [16]): 0; Galium plant response rating (galium; [17]): 0; Plant response rating, Rice (rice): 0; Plant response rating, Sedge, Umbrella (sedge, umbrella): 0; Plant response rating, Ducksalad (ducksalad): 0; Plant response rating, Barnyardgrass (barnyardgrass [13]): 0
CCc1cc(C(=O)NC(C)C)nn1Cc1cc(C(F)(F)F)nn1C(C)C [Compound 210] | 0 | 0 | 0 | 0 | 0 | 0 | 0 | 0 | 0 | 0 | 0 | 10 | 20 | 0 | 0 | 0 | 0 | 0 | 20 | 0 | Barnyardgrass plant response rating (barnyardgrass [7]; [18]): 0; Common Ragweed plant response rating (common ragweed [9]; [18]): 0; Foxtail, Giant plant response rating (foxtail, giant [11]; [18]): 0; Wheat plant response rating (wheat; [17]): 0; Corn plant response rating (corn; [18]): 0; Corn plant response rating (corn; [14]): 0; Blackgrass plant response rating (blackgrass; [18]): 0; Blackgrass plant response rating (blackgrass; [14]): 0; Galium plant response rating (galium; [16]): 0; Galium plant response rating (galium; [17]): 20; Plant response rating, Rice (rice): 0; Plant response rating, Sedge, Umbrella (sedge, umbrella): 0; Plant response rating, Ducksalad (ducksalad): 0; Plant response rating, Barnyardgrass (barnyardgrass [13]): 0
